Reference: US20230149418A1, “METHODS AND SYNERGIC COMPOSITIONS FOR TREATING VIRAL INFECTIONS” (HADASIT MEDICAL RESEARCH SERVICES AND DEVELOPMENT LTD., priority 2018, published 2023)
Where “and” joins values, the source holds several entries; their conditions need not be identical. Equal entries are not always repeated. Where two headings read alike, the source gives them in different places.

Legend:
HCMV TB40/E strain = experiment: Plaque reduction assay, HCMV TB40/E strain in human foreskin fibroblasts, single drugs and 2-drug combinations (Chou-Talalay); format: cell-based, human cytomegalovirus; conditions: for Dose of drug alone at Fa 0.9: Fa 0.9, drug alone; for EC50: Human betaherpesvirus 5, Fibroblast
Method: The CMV strain used was TB40/E. The CMV strain was propagated and tittered in human foreskin fibroblasts (HFF) cells. Cell-free virus stocks and cell-associated clinical isolates were maintained at -70° C. Viral stocks were tittered by serial 10-fold dilution in 24-well tissue culture plates containing HFF monolayers overlaid with agarose-medium. After incubation for 7 to 14 days, plaques were enumerated, and virus titer was determined as plaque forming units (PFU) per milliliter (ml). Stocks of artemisone (10 mM), ganciclovir (10 mM), BDCRB (120 mM), brincidofovir (1 mM), maribavir (10 mM) and letermovir (10 mM) were prepared in DMSO or H2O.
Cell monolayers were inoculated in 24-well culture plates with 0.2 ml of virus suspension containing 60 to 100 PFU per well. After adsorption for 60 -120 min at 37° C., the inoculum was removed, and culture medium was replaced with agarose-medium overlay containing serial concentrations of the tested drug(s). Plates were incubated for 7-14 days at 37° C. in a 5% CO2 incubator. Plaques were then counted microscopically.
The effect of a combination of artemisone with each one of ganciclovir (HCMV DNA polymerase), BDCRB (HCMV terminase inhibitor), brincidofovir (HCMV DNA polymerase inhibitor), maribavir (HCMV UL97 kinase inhibitor) and letermovir (HCMV terminase inhibitor) was evaluated by the classical plaque reduction assay. The in vitro activity of each of the above mentioned antiviral compounds alone or in combination with artemisone was evaluated by the classical plaque reduction assay, using HCMV TB40/E strain in human foreskin fibroblasts cells. The concentration of each antiviral compound that reduced the plaque formation by 50% (EC50) was determined as previously described in Wolf DG et al., J Clin Invest. 1995;95:257-63. The individual EC50 values in human foreskin fibroblasts were as follows: artemisone EC50 - 1 µM; ganciclovir EC50 - 1 µM; maribavir EC50 - 1 µM; BDCRB EC50 - 0.5 µM; letermovir EC50 - 5 nM; brincidofovir EC50 -1 nM.
For the 2-drug combination studies, the EC50 value of each drug was used to determine an equipotent ratio between the two compounds (EC50 of drug 1 / EC50 of drug 2). Serial 2-fold dilutions of a mixture comprising artemisone and another antiviral compound at initial concentrations equivalent to 4-fold the equipotent ratio were added to duplicate wells of cells infected with HCMV. Overall, 5 different concentrations of the drug combinations were used: 4xEC50, 2xEC50, 1xEC50,0.5xEC50,0.25xEC50. The cell monolayers were inoculated in 24-well culture plates with 0.2 ml of virus suspension containing 60 to 100 plaque-forming unit (PFU) per well; the Multiplicity of infection (MOI) was 0.001-0.002 PFU/cell).
D1 and D2 are the doses of the two drugs, and Dx is a dose causing to x% effect (LD0.5 is EC50). Briefly, the software extrapolated a combination index (CI) representing the interaction between the two drugs at specified levels of virus inhibition (that is 50%, 75%, 90%, 95%) versus the percentages of the inhibition induced by each drug alone and in combination (equation 16 in Chou).
A weighted average CI (CIwt) was then calculated for each combination as (CI50+ 2×CI75+3×CI90+4×CI95)/10, to access the drug combinatory effects.
The dose reduction index (DRI) was then calculated as described in Chou. In general, the DRI measures the fold of dose reduction of each drug in the combination at a given effect level compared with the doses of each drug alone. For each one of the below tables: Fa - fraction of virus affected; doses are provided in µm.

[1] = preclinical in vitro and in vivo screens; cited from earlier work

**Q.** With `CC1CCC2[C@@H](C)[C@H](N3CCS(=O)(=O)CC3)OC3O[C@]4(C)CCC1C32OO4` (stereo in doubt) [artemisone] as the molecule, how does the “Dose of drug alone at Fa 0.75” value (HCMV TB40/E strain; Fa 0.75, drug alone, listed as Art) read?
**A.** 2.189 µm and 2.23 µm and 3.071 µm

**Q.** And the “Dose of drug alone at Fa 0.9” value (HCMV TB40/E strain)?
**A.** 7.66 µm

**Q.** And the “Dose of drug alone at Fa 0.9” value (HCMV TB40/E strain; listed as Art)?
**A.** 7.658 µm and 7.87 µm and 8.905 µm

**Q.** What about the “Dose of drug alone at Fa 0.95” value (HCMV TB40/E strain; Fa 0.95, drug alone, listed as Art) of the same molecule?
**A.** 17.9447 µm and 18.59 µm and 18.3723 µm

**Q.** What about the “Dose of drug alone at Fa 0.97” value (HCMV TB40/E strain; Fa 0.97, drug alone, listed as Art) of the same molecule?
**A.** 32.8918 µm and 34.26 µm and 30.7567 µm

**Q.** And the EC50 (HCMV TB40/E strain; Fa 0.5, drug alone, read-out: Dose of drug alone at Fa 0.5)?
**A.** 0.626 µM

**Q.** What about the EC50 (HCMV TB40/E strain; drug alone, human foreskin fibroblasts, read-out: EC50 (concentration that reduced the plaque formation by 50%)) of the same molecule?
**A.** 1 µM

**Q.** And the “DRI (dose reduction index)” value (HCMV TB40/E strain; combination artemisone + brincidofovir, Fa 0.05)?
**A.** 0.16

**Q.** What about the “DRI (dose reduction index)” value (HCMV TB40/E strain; combination artemisone + brincidofovir, Fa 0.5) of the same molecule?
**A.** 1.44

**Q.** What about the “DRI (dose reduction index)” value (HCMV TB40/E strain; combination artemisone + brincidofovir, Fa 0.75) of the same molecule?
**A.** 3.24

**Q.** And the “DRI (dose reduction index)” value (HCMV TB40/E strain; combination artemisone + brincidofovir, Fa 0.9)?
**A.** up to 7

**Q.** And the “DRI (dose reduction index)” value (HCMV TB40/E strain; combination artemisone + brincidofovir, Fa 0.9, listed as Art)?
**A.** 7.28

**Q.** What about the “DRI (dose reduction index)” value (HCMV TB40/E strain; combination artemisone + brincidofovir, Fa 0.95) of the same molecule?
**A.** 12.65

**Q.** What about the “DRI (dose reduction index)” value (HCMV TB40/E strain; combination artemisone + brincidofovir, Fa 0.97) of the same molecule?
**A.** 18.74

**Q.** What about the “DRI (dose reduction index)” value (HCMV TB40/E strain; combination artemisone + cidofovir, Fa 0.05) of the same molecule?
**A.** 0.3256

**Q.** And the “DRI (dose reduction index)” value (HCMV TB40/E strain; combination artemisone + cidofovir, Fa 0.5)?
**A.** 2.047

**Q.** What about the “DRI (dose reduction index)” value (HCMV TB40/E strain; combination artemisone + cidofovir, Fa 0.75) of the same molecule?
**A.** 4.066

**Q.** What about the “DRI (dose reduction index)” value (HCMV TB40/E strain; combination artemisone + cidofovir, Fa 0.9) of the same molecule?
**A.** 8.07

**Q.** And the “DRI (dose reduction index)” value (HCMV TB40/E strain; combination artemisone + cidofovir, Fa 0.9, listed as Art)?
**A.** 8.075

**Q.** What about the “DRI (dose reduction index)” value (HCMV TB40/E strain; combination artemisone + cidofovir, Fa 0.95) of the same molecule?
**A.** 12.8761

**Q.** And the “DRI (dose reduction index)” value (HCMV TB40/E strain; combination artemisone + cidofovir, Fa 0.97)?
**A.** up to 17.9

**Q.** What about the “DRI (dose reduction index)” value (HCMV TB40/E strain; combination artemisone + cidofovir, Fa 0.97, listed as Art) of the same molecule?
**A.** 17.9464

**Q.** What about the “DRI (dose reduction index)” value (HCMV TB40/E strain; combination artemisone + ganciclovir, Fa 0.05) of the same molecule?
**A.** 0.2822

**Q.** What about the “DRI (dose reduction index)” value (HCMV TB40/E strain; combination artemisone + ganciclovir, Fa 0.5) of the same molecule?
**A.** 1.792

**Q.** What about the “DRI (dose reduction index)” value (HCMV TB40/E strain; combination artemisone + ganciclovir, Fa 0.75) of the same molecule?
**A.** 3.573

**Q.** What about the “DRI (dose reduction index)” value (HCMV TB40/E strain; combination artemisone + ganciclovir, Fa 0.9, listed as Art) of the same molecule?
**A.** 7.123

**Q.** What about the “DRI (dose reduction index)” value (HCMV TB40/E strain; combination artemisone + ganciclovir, Fa 0.95) of the same molecule?
**A.** 11.39

**Q.** What about the “DRI (dose reduction index)” value (HCMV TB40/E strain; combination artemisone + ganciclovir, Fa 0.95, listed as Art) of the same molecule?
**A.** 11.3872

**Q.** And the “DRI (dose reduction index)” value (HCMV TB40/E strain; combination artemisone + ganciclovir, Fa 0.97)?
**A.** 15.9002

**Q.** And the “DRI (dose reduction index)” value (HCMV TB40/E strain; combination artemisone + letermovir, Fa 0.05)?
**A.** 0.2276

**Q.** What about the “DRI (dose reduction index)” value (HCMV TB40/E strain; combination artemisone + letermovir, Fa 0.5) of the same molecule?
**A.** 1.624

**Q.** What about the “DRI (dose reduction index)” value (HCMV TB40/E strain; combination artemisone + letermovir, Fa 0.75) of the same molecule?
**A.** 3.38

**Q.** What about the “DRI (dose reduction index)” value (HCMV TB40/E strain; combination artemisone + letermovir, Fa 0.9) of the same molecule?
**A.** 7.04

**Q.** And the “DRI (dose reduction index)” value (HCMV TB40/E strain; combination artemisone + letermovir, Fa 0.9, listed as Art)?
**A.** 7.037

**Q.** What about the “DRI (dose reduction index)” value (HCMV TB40/E strain; combination artemisone + letermovir, Fa 0.95) of the same molecule?
**A.** 11.5866

**Q.** And the “DRI (dose reduction index)” value (HCMV TB40/E strain; combination artemisone + letermovir, Fa 0.97)?
**A.** up to 16

**Q.** What about the “DRI (dose reduction index)” value (HCMV TB40/E strain; combination artemisone + letermovir, Fa 0.97, listed as Art) of the same molecule?
**A.** 16.5217

**Q.** What about the “DRI (dose reduction index)” value (HCMV TB40/E strain; combination artemisone + maribavir, Fa 0.05) of the same molecule?
**A.** 7.032

**Q.** And the “DRI (dose reduction index)” value (HCMV TB40/E strain; combination artemisone + maribavir, Fa 0.5)?
**A.** 15.7458

**Q.** And the “DRI (dose reduction index)” value (HCMV TB40/E strain; combination artemisone + maribavir, Fa 0.75)?
**A.** 21.2706

**Q.** What about the “DRI (dose reduction index)” value (HCMV TB40/E strain; combination artemisone + maribavir, Fa 0.9) of the same molecule?
**A.** 28.7

**Q.** And the “DRI (dose reduction index)” value (HCMV TB40/E strain; combination artemisone + maribavir, Fa 0.9, listed as Art)?
**A.** 28.7339

**Q.** And the “DRI (dose reduction index)” value (HCMV TB40/E strain; combination artemisone + maribavir, Fa 0.95)?
**A.** 35.2558

**Q.** What about the “DRI (dose reduction index)” value (HCMV TB40/E strain; combination artemisone + maribavir, Fa 0.97) of the same molecule?
**A.** 40.8

**Q.** What about the “DRI (dose reduction index)” value (HCMV TB40/E strain; combination artemisone + maribavir, Fa 0.97, listed as Art) of the same molecule?
**A.** 40.7793

**Q.** And the Neurotoxicity [1]?
**A.** does not elicit neurotoxicity
